Laboratory results reported in US10124019B2, “Compositions and their use for removing cholesterol” (Cornell University, priority 2009, dated 2018).
Read-outs that look alike come from different tables or passages of the source.

Key:
[1] = tested on: NPC1- or NPC2-deficient cell lines; assay: Cholesterol esterification by ACAT (BODIPY-C12); format: cell-based, human; settings: S58-035 at 10 μg/mL
Description: FIG. 12 A, B. Charts showing cholesterol esterification by ACAT. Cyclodextrin effects on cholesterol esterification in NPC1 (A) and NPC2 (B) mutant cells. Cells were treated for 1 hour with 3 mM MβCD or HPβCD and then allowed to recover in growth medium for 16 hours. Cells were then incubated with 3 μM 4,4-difluoro-4-bora-3a,4a-diaza-s-indacene-dodecanoic acid (BODIPY-C12) for 6 hours. The ratio of cholesteryl-BODIPY-C12 ester (CE)/BODIPY-C12 acid (FA) after TLC separation was measured and normalized to the average control value. ACAT inhibitor S58-035 was added, where indicated, at 10 μg/mL. For NPC1-defective cells, the average ratio was 0.110±0.007, which corresponded to 3.73±0.22 fmol CE formed per μg cell protein during 6 hours. Corresponding values for NPC2-defective cells were 0.089±0.003 and 2.50±0.24 fmol/μg.
To measure cholesterol levels within the endoplasmic reticulum in response to brief CD treatments, cholesterol esterification was measured by ACAT (FIG. 12). Increased esterification of cholesterol was observed several hours after a short (1-hour) CD treatment of NPC1- or NPC2-deficient cell lines. […] Corresponding reductions in cholesterol accumulation upon MβCD treatment, as measured by the LSO filipin assay, are shown in FIG. 13.

[2] = tested on: NPC1 human fibroblast GM18453; NPC2 human fibroblast GM18445; assay: HDAC inhibitor effect on LSO cholesterol, 48-hour treatment; format: cell-based; settings: 37 nM
Description: Cells were treated in complete medium for two days (48 hours). The dashed horizontal line is 3SD below the mean for untreated cells. (A) results for NPC1 human fibroblast GM18453, (B) results for NPC2 human fibroblast GM18445.
Each data point in the plot is representative of a total of 32 images from two independent experiments. The standard deviation (SD) for DMSO is 0.07, error bar=SE. The dotted line represents the DMSO control.

GM03123 (NPC1) cells = assay: LSO filipin assay of cholesterol accumulation, NPC1 mutant fibroblasts; format: cell-based, human
Description: (§1) FIGS. 5 A-D. Charts showing quantification of CD effects on cholesterol accumulation in NPC1 and NPC2 mutant cells. The filipin fluorescence in LSOs was measured in NPC1 (A and B) and NPC2 (C and D) mutant cells treated with either MβCD (A and C) or HPβCD (B and D) for 1-4 days.
(§2) FIG. 6. Chart comparing cholesterol accumulation as measured by the LSO assay in NPC1-defective, NPC2-defective, and apparently normal human fibroblasts. […] At the end of the experiment, cells were fixed with 1% PFA and stained with 50 μg/mL filipin. Images were acquired using an ImageXpress MICRO imaging system with a 10× objective. Quantification of filipin labeling of the LSOs was performed as described previously (Pipalia N H, Huang A, Ralph H, Rujoi M, Maxfield FR (2006) Automated microscopy screening for compounds that partially revert cholesterol accumulation in Niemann-Pick C cells. J. Lipid Res. 47:284-301).

GM18455 (NPC2) cells = assay: LSO filipin assay of cholesterol accumulation, NPC2 mutant fibroblasts; format: cell-based, human
Description: as §1, §2

NPC mutant cells = assay: BMP accumulation by anti-BMP immunofluorescence; format: cell-based, human; settings: 0.9 mM CD for ≈1 day (FIG. 15)
Description: FIGS. 15 A-C. CD effects on BMP accumulation in NPC mutant cells. BMP levels were quantified using fluorescence microscopy from images obtained with a 20× objective of cells stained with anti-BMP antibody and AlexaFluor488-conjugated secondary antibody in NPC1 (A), NPC2 (B) mutant, and 1 μM U18666A-treated normal (C) cells. Cells were incubated with 0.9 mM CD for ≈1 day.

[3] = tested on: NPC1 and NPC2 mutant cells; assay: LSO filipin staining after cyclodextrin treatment, withdrawal and acute treatment; format: cell-based, human; settings: for cholesterol accumulation detected by filipin labeling: 300 μM CD for 1 day (FIG. 4); for LSO values one more day after CD removal versus fixed immediately / LSO cholesterol accumulation after three days without extracellular CD: 1 day treatment; for LSO values one more day after CD removal versus fixed immediately: then 1 day in growth medium without CD; for LSO cholesterol accumulation after three days without extracellular CD: then three days in serum containing medium; for level to which LSO cholesterol accumulation is reduced: low micromolar concentrations, 1-4 days (FIG. 5)
Description: FIG. 4. Micrographs showing the effect of CDs on cholesterol accumulation in NPC1- and NPC2-deficient cells. (A) Background and shading corrected images of untreated (a and b), MβCD-treated (c and d), or HPβCD-treated (e and f) GM03123 NPC1 cells (a, c, and e) or GM18455 NPC2 (b, d, and f) mutant cells. NPC mutant cells were treated with 300 μMCD for 1 day. (B) Untreated, apparently normal GM05659 cells, shown for comparison. (Scale bars, 100 μm.)
FIGS. 8 A-D. Charts showing persistence of CD effects after treatment. NPC1 (A and B) and NPC2 (C and D) treated with various concentrations of MβCD (A and C) and HPβCD (B and D) for 1 day and then fixed (0 days after 24 h treatment), or rinsed extensively, and allowed to grow in normal growth medium for up to three additional days after CD removal. Quantification of LSO filipin fluorescence power is shown.
FIG. 9 A, B. Filipin micrographs showing acute cyclodextrin effects on cholesterol accumulation in NPC1- and NPC2-deficient cells. Background and shading corrected images of untreated control (panels a-c), 0 h after treatment (panels d-f), or 24 h after treatment (panels g-i) for NPC1 (A) or NPC2 (B) mutant cells were obtained as in FIG. 6. […] (Scale bars, 100 μm.)
FIGS. 10 A-D. Short-term MβCD treatment. […] Cells were either fixed immediately or rinsed extensively and returned to growth medium for 24 hours. Quantification of LSO filipin fluorescence power is shown (A and C). Numeric data represent averages±SEM of three independent experiments normalized to control (untreated) average value for each experiment. *P<0.0001 vs. control (n=12, where n is total number of wells used for quantification). Filipin images of NPC1 (B) or NPC2 (D) mutant cells treated with MβCD/cholesterol are shown. (Scale bars, 100 μm.)
To determine whether the CD-mediated decrease in cholesterol accumulation would be sustained after the compound has been removed from the culture medium, NPC1 and NPC2 mutant cells were treated for 1 day with varying concentrations of MβCD or HPβCD (FIG. 8). The cells were then washed extensively to remove the compounds and returned to growth medium for up to three days.
To determine whether the reduction of free cholesterol in LSOs of NPC-defective cells resulted from extraction of cholesterol by CD from the PM or from inside the LSOs, this experiment acutely treated cells for one hour with MβCD in medium without serum (to extract cholesterol from the PM), MβCD in medium plus 10% FBS (to exchange cholesterol between serum lipoproteins and the PM (V. M. Atger, et al. (1997), J. Clin. Invest., 99:773-780)), or MβCD loaded with cholesterol (≈5:1 (MβCD/cholesterol) ratio) to overload cells with cholesterol.

[4] = tested on: U18666A-treated GM05659 cells
Description: (§3) Cells were plated in 384-well assay plates at a density to produce ≈80-90% confluency by experiment completion and treated with U18666A at indicated concentrations for 24 hour before addition of various concentrations of either MβCD or HPβCD for another 24 hours, during which indicated U18666A levels were maintained. At the end of the experiment, cells were fixed with 1% PFA and stained with 50 μg/mL filipin. Images were acquired using an ImageXpressMICRO imaging system with a 10× objective. […] (A) Cholesterol accumulation, as measured by the LSO filipin assay, at different concentrations of U18666A. MβCD (B) and HPβCD (C) LSO filipin dose-response curves at three different U18666A concentrations. […] Data represent averages±SEM of two independent experiments (n=12 for control and n=6 for treated, where n is total number of wells per condition used for quantification).

[5] = tested on: NPC1- or NPC2-deficient cell lines; settings: literature study, cultured NPC1- and NPC2-deficient cells; cited from earlier work
npc1−/− mice = settings: cited from earlier work
[6] = tested on: U18666A-treated GM05659 cells; assay: LSO filipin assay in U18666A-treated apparently normal fibroblasts; settings: read-out: EC50 (μM), 50% reduction in LSO filipin, cyclodextrin 1 day
Description: as §3

human NPC1 cells = assay: Removal of cholesterol from LSOs by filipin staining and digital image analysis
Description: Graph showing the concentration and time dependence of the removal of cholesterol from LSOs of human NPC1 cells incubated with the indicated concentrations of MβCD in complete medium for 1-4 days.
Graph showing concentration of cholesterol from LSOs of NPC1 cells incubated with 0.33 mM MβCD for one hour under various conditions (i.e., no FBS, 10% FBS, and cholesterol-loaded MβCD (i.e., “MbCD/cholest.”), and these with either no chase or a 24 hour chase). At the end of the incubation, cells were rinsed thoroughly, and returned to complete medium for 24 hours.
Graph comparing the cholesterol-lowering ability of MβCD and a MβCD-dextran composition of the instant invention. Human NPC1 cells were incubated with MβCD (●) or Dextran-PEG-MbCD (O) for 39 hours. The polymers had about two MβCDs per polymer, and the concentration is the MβCD concentration.
(A) Cells were treated for 2 days with 50 μM MβCD or 50 μM MβCD conjugated to dextran fixed with paraformaldehyde, stained, and imaged. Cholesterol accumulation in LSOs was measured by quantifying filipin fluorescence. Data represent averages±SEM of one representative experiment (n=8, where n is total number of wells per condition used for quantification).
In this experiment, studies were conducted to determine the effects of MβCD on NPC1 and NPC2 cells. […] The cells were then rinsed and incubated in complete medium for 24 hours. […] To further emphasize this, the one-hour loading pulse was conducted with cholesterol-loaded MβCD, which would actually increase the cellular cholesterol during the loading period.

[7] = read-out: EC50 (μM), 50% reduction in LSO filipin, 1 day of treatment
[8] = read-out: EC50 (μM), 50% reduction in LSO filipin, 2 days of treatment
[9] = read-out: EC50 (μM), 50% reduction in LSO filipin, 3 days of treatment
[10] = read-out: EC50 (μM), 50% reduction in LSO filipin, 4 days of treatment

Row | Compound | EC50 (GM03123 (NPC1) cells; [7]) [µM] | EC50 (GM03123 (NPC1) cells; [8]) [µM] | EC50 (GM03123 (NPC1) cells; [9]) [µM] | EC50 (GM03123 (NPC1) cells; [10]) [µM] | EC50 (GM18455 (NPC2) cells; [7]) [µM] | EC50 (GM18455 (NPC2) cells; [8]) [µM] | EC50 (GM18455 (NPC2) cells; [9]) [µM] | EC50 (GM18455 (NPC2) cells; [10]) [µM] | BMP accumulation (NPC mutant cells) | cholesterol accumulation detected by filipin labeling [3] | LSO values one more day after CD removal versus fixed immediately [3] | LSO cholesterol accumulation after three days without extracellular CD [3] | level to which LSO cholesterol accumulation is reduced [3] | EC50 [4] [µM] | EC50 ([6]; U18666A 1,000 nM) [µM] | EC50 ([6]; U18666A […]) [µM] | further results
1 | CCCCCCCCCC[Si](C)(C)CCC(=O)NC(Cc1ccc(C)cc1)c1ccccc1 (stereo not shown) [S58-035] |  |  |  |  |  |  |  |  |  |  |  |  |  |  |  |  | effect on CD-induced increase in cholesterol esterification [1]: inhibited
2 | CC(/C=C/C(=O)NO)=C\[C@@H](C)C(=O)c1ccc(N(C)C)cc1 [trichostatin A] |  |  |  |  |  |  |  |  |  |  |  |  |  |  |  |  | reduction of cholesterol in the LSOs [2]: significantly effective
3 | hydroxypropyl-βCD [HPβCD] | 3.16 | 3.77 | 4.18 | 5.44 | 272 | 20.8 | 16.9 | 11.5 | significantly reduced BMP accumulation | reduced cholesterol accumulation | further decrease in LSO values | significant reduction | near-normal levels | 17.4 | 185 | 69.9 | ACAT-mediated esterification of cholesterol [5]: increased ACAT-mediated esterification of cholesterol; glycosphingolipid storage (npc1−/− mice; repeated injections): clearance of various glycosphingolipids; lifespan (npc1−/− mice; repeated injections): further prolongation of lifespan; lifespan (npc1−/− mice; single injections): can extend their lifespan; times higher concentrations required to achieve the same effect as MβCD (human NPC1 cells; relative to MβCD): 3-5 times
4 | methyl β-cyclodextrin [MβCD] | 2.22 | 1.1 | 0.98 | 1.08 | 40.4 | 3.19 | 2.8 | 1.69 | significantly reduced BMP accumulation | reduced cholesterol accumulation | further decrease in LSO values | significant reduction | near-normal levels | 6.2 | 48.1 | 18.9 | concentration giving effects equivalent to those of HPβCD ([3]; relative to HPβCD): approximately three-fold lower concentrations; cholesterol in LSOs after 24 hr chase (human NPC1 cells; 1 hour pulse, 0.33 mM, then 24 hours in complete medium): significant reduction; time for the effect to reach steady state (human NPC1 cells; FIG. 1): about 2 days; EC50 (human NPC1 cells; read-out: concentration giving half-maximal effect on removal of cholesterol from LSOs, complete medium, 1-4 days (FIG. 1)): 2 to 3 µM
